Measured values reported in patent US20250313553A1, “ANNULATED 2-AMINO-3-CYANO THIOPHENES AND DERIVATIVES FOR THE TREATMENT OF CANCER” (Boehringer Ingelheim Int'l GmbH Corp., priority 2021, published 2025).
In brackets after ≈: the same amount, converted by molar mass. Like-named read-outs stand apart in the source and are kept apart here.

Tests used:
KRAS (G12D) and SOS1 = target: T1, KRAS (G12D) and SOS1 (Homo sapiens, UniProt P01116, G12D); assay: KRAS::SOS1 AlphaScreen binding assay, KRAS G12D
T1 construct: KRAS (G12D) 1-169, N-terminal 6His-tag; 6His (N); purchased Xtal BioStructures, Inc. (KRAS G12D); Viva Biotech Ltd (SOS1)
Experimental: Low IC50 values in this assay setting are indicative of strong inhibition of protein-protein interaction between SOS1 and KRAS:
These assays measure the inhibitory effect of compounds on KRAS mutant protein-protein interactions using the Alpha Screen technology by Perkin Elmer.
For the chosen highest assay concentration of 100 μM, 150 nL of compound solution are transferred from a 10 mM DMSO compound stock solution. A series of eleven fivefold dilutions per compound are transferred to the assay plate, compound dilutions are tested in duplicates. DMSO are added as backfill to a total volume of 150 nL.
The assays run on a fully automated robotic system in a darkened room below 100 Lux. To 150 nl of compound dilution 10 μl of a mix including KRAS mutant protein, SOS1 (final assay concentrations see above) and GDP nucleotide (Sigma G7127; final assay concentration 10 μM) in assay buffer (1×PBS, 0.1% BSA, 0.05% Tween 20) are added into columns 1-24. After 30 minutes incubation time 5 μl of Alpha Screen bead mix in assay buffer are added into columns 1-23.
Plates are kept at room temperature in a darkened incubator. After an additional 60 minutes incubation time the signal is measured in a PerkinElmer Envision HTS Multilabel Reader using the AlphaScreen specs from PerkinElmer.
IC50 values are calculated and analyzed with Boehringer Ingelheim's MEGALAB IC50 application using a 4 parametric logistic model.

KRAS G12V Ba/F3 cells = KRAS G12V Ba/F3 cells (Homo sapiens, UniProt P01116, G12V, cells depend on it); assay: Ba/F3 proliferation assay, KRAS G12V; format: cell-based; details: 72 h, AlamarBlue, read-out: KRAS G12V Ba/F3 IC50
Experimental: To generate KRASG12-dependent Ba/F3 models, Ba/F3 cells are transduced with retroviruses containing vectors that harbor KRASG12 isoforms. Platinum-E cells (Cell Biolabs) are used for retrovirus packaging. Retrovirus is added to Ba/F3 cells. To ensure infection, 4 μg/mL polybrene is added and cells are spinfected. […] Cells with an infection efficiency of 10% to 20% are further cultivated and puromycin selection with 1 μg/mL is initiated. As a control, parental Ba/F3 cells are used to show selection status. Selection is considered successful when parental Ba/F3 cells cultures died. To evaluate the transforming potential of KRASG12 mutations, the growth medium is no longer supplemented with IL-3. Ba/F3 cells harboring the empty vector are used as a control. Approximately ten days before conducting the experiments, puromycin is left out.
All treatments are performed in technical duplicates. […] AlamarBlue™ (ThermoFisher), a viability stain, is added and fluorescence measured in the PerkinElmer Envision HTS Multilabel Reader. The raw data are imported into and analyzed with the Boehringer Ingelheim proprietary software MegaLab (curve fitting based on the program PRISM, GraphPad Inc.).

[1] = tested on: ERK phosphorylation in NCI-H358 (KRAS G12C); assay: ERK phosphorylation assay (assay 1, NCI-H358); format: cell-based; details: Homo sapiens; NCI-H358, assay 1, 1 h incubation; read-out: IC50 H358 pERK
Experimental: Low IC50 values in this assay setting are indicative of high potency of the compounds according to the invention. […]
The cells are incubated for 1 h at room temperature and then incubated overnight in an incubator at 37° C. and 5% CO2 in a humidified atmosphere. 60 nL compound solution (10 mM DMSO stock solution) is then added using a Labcyte Echo 550 device. […] After 20 min of incubation at room temperature with shaking, 6 μL of each lysate sample is transferred to a 384-well Proxiplate and analyzed for pERK (Thr202/Tyr204) with the AlphaLISA SureFire Ultra pERK1/2 (Thr202/Tyr204) Assay Kit. 3 μL Acceptor Mix and 3 μL Donor Mix are added under subdued light and incubated for 2 h at room temperature in the dark, before the signal is measured on a PerkinElmer Envision HTS Multilabel Reader. The raw data are imported into and analyzed with the Boehringer Ingelheim proprietary software MegaLab (curve fitting based on the program PRISM, GraphPad Inc.).

[2] = Metabolic (microsomal) stability assay, HLM; format: in vitro ADME; details: human liver microsomes, 1 μM, predicted clearance as percent of liver blood flow
Experimental: The metabolic degradation of the test compound is assayed at 37° C. with pooled liver microsomes (mouse (MLM), rat (RLM) or human (HLM)). The final incubation volume of 48 μL per time point contains TRIS buffer (pH 7.5; 0.1 M), magnesium chloride (6.5 mM), microsomal protein (0.5 mg/mL for mouse/rat, 1 mg/mL for human specimens) and the test compound at a final concentration of 1 μM. Following a short preincubation period at 37° C., the reactions are initiated by addition of 12 μL beta-nicotinamide adenine dinucleotide phosphate, reduced form (NADPH, 10 mM) and terminated by transferring an aliquot into solvent after different time points (0, 5, 15, 30, 60 min). Additionally, the NADPH-independent degradation is monitored in incubations without NADPH, terminated at the last time point by addition of acetonitrile. The quenched incubations are pelleted by centrifugation (4,000 rpm, 15 min). An aliquot of the supernatant is assayed by LC-MS/MS to quantify the concentration of parent compound in the individual samples.
In vitro intrinsic clearance (CLint, in vitro) is calculated from the time course of the disappearance of the test drug during the microsomal incubation. Each plot is fitted to the first-order elimination rate constant as C(t)=C0*exp(−ke*t), where C(t) and C0 are the concentration of unchanged test drug at incubation time t and that at preincubation and ke is the disappearance rate constant of the unchanged drug. Subsequently, CLint, in vitro (μL min^−1·amount protein) values are converted to predicted CLint, in vivo (mL min^−1·kg^−1) from incubation parameters according to the equation CLint, in vivo=CLint, in vitro×(incubation volume (ml)/amount protein (mg))×(amount protein (mg)/g liver tissue)×(liver weight/body wt.). For better across species comparison the predicted clearance is expressed as percent of the liver blood flow [% QH](mL min^−1·kg^−1) in the individual species. In general, high stability (corresponding to low % QH) of the compounds across species is desired.

[3] = Solubility measurement (DMSO solution precipitation method); format: physicochemical; details: aqueous buffer, kinetic from dmso stock
Experimental: The DMSO solution is diluted with an aqueous medium (McIlvaine buffer with pH=4.5 or 6.8) to a final concentration of 250 μM. After 24 h of shaking at ambient temperature a potentially formed precipitate is removed by filtration. The concentration of the test compound in the filtrate is determined by LC-UV methods by calibrating the signal to the signal of a reference solution with complete dissolution of the test compound in acetonitrile/water (1:1) with known concentration.

[4] = McIlvaine buffer pH 4.5, 24 h, read-out: solubility pH 4.5
[5] = McIlvaine buffer pH 6.8, 24 h, read-out: solubility pH 6.8

T1 sequence (P01116 1-169 isoform P01116-2 G12D): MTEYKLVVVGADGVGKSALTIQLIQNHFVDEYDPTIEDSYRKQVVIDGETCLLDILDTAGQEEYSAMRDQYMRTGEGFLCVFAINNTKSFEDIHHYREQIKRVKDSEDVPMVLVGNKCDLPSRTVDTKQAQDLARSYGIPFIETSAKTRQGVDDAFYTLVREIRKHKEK
KRAS G12V Ba/F3 cells, sequence (P01116 whole entry G12V, canonical isoform): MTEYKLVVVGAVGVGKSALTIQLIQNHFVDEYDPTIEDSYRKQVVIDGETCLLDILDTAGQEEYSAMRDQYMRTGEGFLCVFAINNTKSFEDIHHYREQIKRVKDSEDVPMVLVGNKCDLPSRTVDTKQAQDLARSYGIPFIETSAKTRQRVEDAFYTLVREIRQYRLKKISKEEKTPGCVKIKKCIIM

Row | SMILES | IC50 (KRAS (G12D) and SOS1) [µM] | GI50 (KRAS G12V Ba/F3 cells) [µM] | IC50 [1] [µM] | HLM QH [2] [%] | solubility at 24 h [3, 4] [mg/mL] | solubility at 24 h [3, 5] [mg/mL]
1 | C[C@H]1CNCCN1c1nccc(-c2noc([C@@]3(C)CCCc4sc(N)c(C#N)c43)n2)n1 [Example V-4] | 0.015 | 1.08 | 0.13 | 83 | > 0.097 | > 0.091
2 | C[C@H]1CNCCCN1c1nccc(-c2noc([C@@]3(C)CCCc4sc(N)c(C#N)c43)n2)n1 [Example V-6] | 0.012 | 1.07 | 0.075 | 77 | 0.088 (≈ 195 µM) | 0.085 (≈ 189 µM)
3 | C[C@H]1CN(C)CCN1c1nccc(-c2cc([C@@]3(C)CCCc4sc(N)c(C#N)c43)on2)n1 [Example V-27] | 0.008 | 1.69 | – | >88 | > 0.093 | 0.018 (≈ 40 µM)
4 | CC(C)N1CCCN(c2nccc(-c3noc([C@@]4(C)CCCc5sc(N)c(C#N)c54)n3)n2)[C@@H](C)C1 [Example V-9] | 0.005 | 0.076 | 0.012 | >88 | > 0.11 | > 0.11
5 | C[C@H]1CN(C)CCCN1c1nccc(-c2noc([C@@]3(C)CCCc4sc(N)c(C#N)c43)n2)n1 [Example V-5] | 0.007 | 0.64 | 0.038 | 94 | > 0.1 | 0.092 (≈ 198 µM)
6 | C[C@H](Oc1ccnc(-c2noc([C@@]3(C)CCCc4sc(N)c(C#N)c43)n2)n1)[C@@H]1CCCN1C [Example V-11] | – | – | 0.007 | 81 | > 0.116 | > 0.116
7 | C[C@H]1CN(C)CCN1c1nccc(-c2noc([C@@]3(C)CCCc4sc(N)c(C#N)c43)n2)n1 [Example V-7] | 0.016 | 1.68 | 0.137 | 95 | – | –
8 | C[C@H](Oc1nccc(-c2noc([C@@]3(C)CCCc4sc(N)c(C#N)c43)n2)n1)[C@@H]1CCCN1C [Example V-10] | 0.005 | 0.361 | 0.012 | 87 | > 0.11 | > 0.11
9 | C[C@H](Oc1cccc(-c2noc([C@@]3(C)CCCc4sc(N)c(C#N)c43)n2)n1)[C@@H]1CCCN1C [Example V-8] | 0.007 | 0.443 | 0.055 | >88 | > 0.096 | > 0.095
10 | COCCCN1CCCN(c2nccc(-c3noc([C@@]4(C)CCCc5sc(N)c(C#N)c54)n3)n2)[C@@H](C)C1 [Example V-2] | 0.003 | 0.917 | 0.023 | >95 | > 0.13 | 0.1 (≈ 191 µM)
11 | C[C@H]1CN(C)CCN1c1cccc(-c2noc([C@@]3(C)CCCc4sc(N)c(C#N)c43)n2)n1 [Example V-1] | 0.026 | 1.44 | 0.252 | 93 | > 0.11 | 0.076 (≈ 169 µM)
